# Laboratory results: US10245261B2, “Substituted indol-5-ol derivatives and their therapeutic applications” (NantBioScience, Inc., priority 2013, dated 2019)
# What was measured:
# GSK3α(h) = GSK3α(h) (Homo sapiens, UniProt P49840); experiment: KinaseProfiler kinase assay; assay type: biochemical
# Abl(T315I)(h) = Abl(T315I)(h) (Homo sapiens, UniProt P00519, T315I); experiment: KinaseProfiler kinase assay; assay type: biochemical
# Flt4(h) = Flt4(h) (Homo sapiens, UniProt P35916); experiment: KinaseProfiler kinase assay; assay type: biochemical
# Sequence of Flt4(h) (P35916 25-1363): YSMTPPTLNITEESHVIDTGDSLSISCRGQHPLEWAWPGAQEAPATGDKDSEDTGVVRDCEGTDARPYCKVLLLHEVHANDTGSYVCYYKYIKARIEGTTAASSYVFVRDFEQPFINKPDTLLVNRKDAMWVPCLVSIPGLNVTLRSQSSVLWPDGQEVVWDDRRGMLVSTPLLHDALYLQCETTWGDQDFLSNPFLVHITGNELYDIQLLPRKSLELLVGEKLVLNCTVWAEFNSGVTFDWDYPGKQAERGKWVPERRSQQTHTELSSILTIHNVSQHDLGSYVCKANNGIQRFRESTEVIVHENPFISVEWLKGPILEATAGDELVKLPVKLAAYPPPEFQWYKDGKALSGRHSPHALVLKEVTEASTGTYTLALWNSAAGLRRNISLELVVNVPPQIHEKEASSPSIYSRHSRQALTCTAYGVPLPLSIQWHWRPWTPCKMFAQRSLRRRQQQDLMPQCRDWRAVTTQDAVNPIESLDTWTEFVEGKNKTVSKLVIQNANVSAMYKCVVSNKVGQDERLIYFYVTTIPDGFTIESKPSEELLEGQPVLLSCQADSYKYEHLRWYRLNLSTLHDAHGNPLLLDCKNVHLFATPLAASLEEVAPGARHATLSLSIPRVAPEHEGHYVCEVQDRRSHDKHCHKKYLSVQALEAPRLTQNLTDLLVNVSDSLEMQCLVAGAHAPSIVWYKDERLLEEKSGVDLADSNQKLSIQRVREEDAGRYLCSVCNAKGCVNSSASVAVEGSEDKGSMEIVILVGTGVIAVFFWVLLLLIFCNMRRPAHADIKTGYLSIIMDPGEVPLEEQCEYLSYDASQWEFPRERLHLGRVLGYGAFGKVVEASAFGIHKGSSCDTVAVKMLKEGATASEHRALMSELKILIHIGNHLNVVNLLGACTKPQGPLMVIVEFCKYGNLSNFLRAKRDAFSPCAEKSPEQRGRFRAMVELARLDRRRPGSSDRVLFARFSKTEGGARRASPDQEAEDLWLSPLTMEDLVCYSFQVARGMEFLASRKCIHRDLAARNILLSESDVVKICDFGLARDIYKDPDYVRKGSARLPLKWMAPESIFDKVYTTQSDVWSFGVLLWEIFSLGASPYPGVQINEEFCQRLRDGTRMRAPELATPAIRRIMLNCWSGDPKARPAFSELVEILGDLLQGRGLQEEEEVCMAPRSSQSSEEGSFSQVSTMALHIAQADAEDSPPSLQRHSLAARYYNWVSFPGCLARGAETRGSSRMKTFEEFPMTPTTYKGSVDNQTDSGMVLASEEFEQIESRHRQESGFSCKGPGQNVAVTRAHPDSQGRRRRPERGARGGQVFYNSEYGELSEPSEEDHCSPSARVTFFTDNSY
# DRAK1(h) = DRAK1(h) (Homo sapiens, UniProt Q9UEE5); experiment: KinaseProfiler kinase assay; assay type: biochemical
# Sequence of DRAK1(h) (Q9UEE5 whole entry): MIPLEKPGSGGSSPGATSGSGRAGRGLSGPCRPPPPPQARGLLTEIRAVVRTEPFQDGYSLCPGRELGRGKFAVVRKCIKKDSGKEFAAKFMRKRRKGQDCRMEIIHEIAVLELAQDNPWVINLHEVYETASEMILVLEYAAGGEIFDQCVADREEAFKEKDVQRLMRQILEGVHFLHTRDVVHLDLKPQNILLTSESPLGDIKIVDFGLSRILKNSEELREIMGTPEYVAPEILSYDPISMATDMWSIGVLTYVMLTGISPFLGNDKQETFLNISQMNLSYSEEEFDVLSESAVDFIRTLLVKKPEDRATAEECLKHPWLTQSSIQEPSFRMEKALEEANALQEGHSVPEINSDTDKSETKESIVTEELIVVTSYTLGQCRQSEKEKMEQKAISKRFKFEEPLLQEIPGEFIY
# JNK2α2(h) = JNK2α2(h) (Homo sapiens, UniProt P45984); experiment: KinaseProfiler kinase assay; assay type: biochemical
# Sequence of JNK2α2(h) (P45984 whole entry): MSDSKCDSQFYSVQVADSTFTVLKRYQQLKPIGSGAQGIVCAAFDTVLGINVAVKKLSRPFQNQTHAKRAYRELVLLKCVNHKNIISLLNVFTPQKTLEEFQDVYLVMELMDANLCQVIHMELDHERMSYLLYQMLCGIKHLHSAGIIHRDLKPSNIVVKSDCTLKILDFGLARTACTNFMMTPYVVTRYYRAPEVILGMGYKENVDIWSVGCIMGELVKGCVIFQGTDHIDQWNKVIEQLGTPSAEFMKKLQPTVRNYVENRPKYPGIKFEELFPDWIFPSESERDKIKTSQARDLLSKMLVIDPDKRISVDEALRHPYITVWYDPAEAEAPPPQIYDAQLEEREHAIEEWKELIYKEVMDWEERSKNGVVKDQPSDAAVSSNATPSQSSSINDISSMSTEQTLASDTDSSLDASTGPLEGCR
# Abl(Y253F)(h) = Abl(Y253F)(h) (Homo sapiens, UniProt P00519, Y253F); experiment: KinaseProfiler kinase assay; assay type: biochemical
# CK1γ1(h) = CK1γ1(h) (Homo sapiens, UniProt Q9HCP0); experiment: KinaseProfiler kinase assay; assay type: biochemical
# Sequence of CK1γ1(h) (Q9HCP0 whole entry): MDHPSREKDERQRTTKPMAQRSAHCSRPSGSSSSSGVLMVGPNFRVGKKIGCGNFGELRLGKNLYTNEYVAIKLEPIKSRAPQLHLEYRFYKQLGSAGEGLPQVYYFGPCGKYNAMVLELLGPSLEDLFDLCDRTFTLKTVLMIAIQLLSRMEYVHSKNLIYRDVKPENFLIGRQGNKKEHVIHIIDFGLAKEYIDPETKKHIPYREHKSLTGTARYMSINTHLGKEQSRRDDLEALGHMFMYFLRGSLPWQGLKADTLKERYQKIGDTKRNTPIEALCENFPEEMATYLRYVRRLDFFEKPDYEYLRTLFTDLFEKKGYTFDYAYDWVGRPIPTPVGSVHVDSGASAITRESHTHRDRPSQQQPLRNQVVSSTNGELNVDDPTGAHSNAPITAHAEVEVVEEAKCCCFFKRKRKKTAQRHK
# TT = experiment: CellTiterBlue cell growth inhibition; assay type: cell-based; conditions: Homo sapiens, 72 hours
# KU812 = experiment: CellTiterBlue cell growth inhibition; assay type: cell-based; conditions: Homo sapiens; KU812, 72 hours
# AN3.CA = experiment: CellTiterBlue cell growth inhibition; assay type: cell-based; conditions: Homo sapiens, 72 hours
# Kato III = experiment: CellTiterBlue cell growth inhibition; assay type: cell-based; conditions: Homo sapiens, 72 hours
# RS4.11 = experiment: CellTiterBlue cell growth inhibition; assay type: cell-based; conditions: Homo sapiens; RS4.11, 72 hours
# [1] = biological target: PI3 Kinase (p110β/p85α)(h) (Homo sapiens, UniProt P42338); experiment: KinaseProfiler kinase assay; assay type: biochemical
# CHK2(R145W)(h) = CHK2(R145W)(h) (Homo sapiens, UniProt O96017, R145W); experiment: KinaseProfiler kinase assay; assay type: biochemical
# Sequence of CHK2(R145W)(h) (O96017 whole entry R145W): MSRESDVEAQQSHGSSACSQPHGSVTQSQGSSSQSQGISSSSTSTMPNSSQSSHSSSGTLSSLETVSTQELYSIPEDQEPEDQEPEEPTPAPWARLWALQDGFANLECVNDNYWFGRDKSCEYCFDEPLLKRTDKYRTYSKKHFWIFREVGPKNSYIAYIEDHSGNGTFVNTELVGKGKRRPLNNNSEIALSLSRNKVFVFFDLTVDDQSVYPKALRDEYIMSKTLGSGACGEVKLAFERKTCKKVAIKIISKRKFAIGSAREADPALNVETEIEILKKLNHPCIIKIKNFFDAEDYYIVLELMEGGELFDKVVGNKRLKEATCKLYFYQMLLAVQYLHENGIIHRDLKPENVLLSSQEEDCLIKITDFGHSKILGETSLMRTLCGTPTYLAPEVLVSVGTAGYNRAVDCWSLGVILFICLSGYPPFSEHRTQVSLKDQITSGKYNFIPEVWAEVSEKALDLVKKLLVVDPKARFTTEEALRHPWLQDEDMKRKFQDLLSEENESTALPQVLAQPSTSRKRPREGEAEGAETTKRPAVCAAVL
# [2] = system: human K562 chronic myelogenous leukemia (CML) xenograft; experiment: CML xenograft model in female SCID mice; assay type: in vivo, mouse
# Method: The objective of the second study was to evaluate antitumor activities of novel multiple-kinase inhibitor NTW-3475 in human K562 chronic myelogenous leukemia (CML) xenograft model in female SCID mice.
# Four to six animals were randomly assigned to study groups. Each animal was weighed, and then injected subcutaneously in the left and right flank area with 0.1 ml of 8.0×10^7 K562 cells per mL.
# (§1) Each test or control animal was on a 5-day on, two-day off for two cycles treatment schedule. Tumor growth was measured with a digital hand held caliper twice weekly (once tumor emerges) prior to the first dosing and then two to three times weekly until euthanized. Animals were weighed prior to tumor cell injection, prior to dosing, two to three times weekly with tumor growth measurements, and prior to euthanasia.
# This example illustrated antitumor activities of Compound 10 and 11 in human K562 chronic myelogenous leukemia (CML) xenograft model in female SCID mice.
# On the appropriate days, each animal in an appropriate group will receive a specific amount of test article either at 75 or 100 mg/kg, and the dosing volume is 10 ml/kg by oral gavage as indicated. Dosing schedule will be once daily for 10 days (qd×10, 5 days on and 2 days off for 2 cycles).
# Fgr(h) = Fgr(h) (Homo sapiens, UniProt P09769); experiment: KinaseProfiler kinase assay; assay type: biochemical
# Sequence of Fgr(h) (P09769 whole entry): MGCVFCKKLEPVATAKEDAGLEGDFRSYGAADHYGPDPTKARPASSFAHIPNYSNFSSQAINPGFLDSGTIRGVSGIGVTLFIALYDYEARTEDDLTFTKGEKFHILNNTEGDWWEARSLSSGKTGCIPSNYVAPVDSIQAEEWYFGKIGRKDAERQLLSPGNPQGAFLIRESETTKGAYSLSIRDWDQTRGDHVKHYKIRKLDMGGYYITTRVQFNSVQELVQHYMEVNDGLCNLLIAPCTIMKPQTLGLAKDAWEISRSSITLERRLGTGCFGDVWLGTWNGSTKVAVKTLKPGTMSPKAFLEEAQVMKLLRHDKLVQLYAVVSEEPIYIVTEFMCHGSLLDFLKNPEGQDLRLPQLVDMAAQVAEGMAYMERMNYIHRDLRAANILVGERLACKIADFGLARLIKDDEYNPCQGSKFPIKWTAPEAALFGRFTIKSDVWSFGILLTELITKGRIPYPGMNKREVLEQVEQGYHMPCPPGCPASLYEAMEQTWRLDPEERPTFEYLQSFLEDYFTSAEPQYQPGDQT
# [3] = system: human MV411 human acute myelogenous leukemia (AML) xenograft; experiment: AML xenograft model in female SCID mice; assay type: in vivo, mouse
# Method: The objective of the first study was to evaluate antitumor activities of the novel multiple-kinase inhibitor NTW-3475 against human MV411 human acute myelogenous leukemia (AML) xenograft model in female SCID mice.
# Four or six animals were randomly assigned to each study group. Each animal was injected subcutaneously in the left and right flank area with 0.1 ml of 1.0×10^8 MV411 cells per mL.
# as §1, with “animal was placed on a” for “animal was on a”, “two cycles of vehicle negative control or 25, 50 mg/kg of NTW-3475. Tumor growth” for “two cycles treatment schedule. Tumor growth”
# The objective of the first study was to evaluate antitumor activities of the novel multiple-kinase inhibitor Compounds 11, 68, and 82 against human MV411 human acute myelogenous leukemia (AML) xenograft model in female SCID mice.
# as §1, with “animal was placed on a” for “animal was on a”, “two cycles of vehicle negative control or 25, 50 mg/kg of compound. Tumor growth” for “two cycles treatment schedule. Tumor growth”
# Sequence of GSK3α(h) (P49840 whole entry): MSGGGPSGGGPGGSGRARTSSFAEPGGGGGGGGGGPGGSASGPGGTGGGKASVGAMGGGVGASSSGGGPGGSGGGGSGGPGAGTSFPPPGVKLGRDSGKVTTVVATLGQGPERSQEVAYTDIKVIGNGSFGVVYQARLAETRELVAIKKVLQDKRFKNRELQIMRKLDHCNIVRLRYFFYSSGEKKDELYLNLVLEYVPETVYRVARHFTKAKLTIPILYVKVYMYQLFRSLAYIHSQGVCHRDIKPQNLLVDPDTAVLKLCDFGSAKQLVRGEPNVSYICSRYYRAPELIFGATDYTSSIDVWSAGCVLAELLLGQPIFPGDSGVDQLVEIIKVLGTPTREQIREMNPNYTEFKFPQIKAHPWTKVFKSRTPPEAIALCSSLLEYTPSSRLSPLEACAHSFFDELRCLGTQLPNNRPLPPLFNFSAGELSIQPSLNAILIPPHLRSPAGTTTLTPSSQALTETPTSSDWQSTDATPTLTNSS
Compound,GI50 (TT),GI50 (KU812),GI50 (AN3.CA),GI50 (Kato III),GI50 (RS4.11),anti-tumor effect [2],anti-tumor effect [3],body weight change [3],also measured
Cc1cc2c(F)c(Oc3nc(Nc4cc(C5CC5)[nH]n4)cc(N4CCN(C)CC4)n3)ccc2[nH]1 [Compound 10],8.3 nM,< 0.025 nM,3 nM,0.07 nM,3.22 nM,strong anti-tumor effect,,,inhibition at 0.1 µM (GSK3α(h)): 28%; inhibition at 0.1 µM (Abl(T315I)(h)): 101%; inhibition at 0.1 µM (Flt4(h)): 100%; inhibition at 0.1 µM (DRAK1(h)): 36%; inhibition at 0.1 µM (JNK2α2(h)): -20%; inhibition at 0.1 µM (Abl(Y253F)(h)): 103%; inhibition at 0.1 µM (CK1γ1(h)): -4%; inhibition at 0.1 µM [1]: 0%; inhibition at 0.1 µM (CHK2(R145W)(h)): 22%; body weight change [2]: no body weight lost; inhibition at 0.1 µM (Fgr(h)): 97%
"Cc1cc2c(F)c(Oc3nc(Nc4cc(C5CC5)[nH]n4)cc(N4CCNCC4)n3)ccc2[nH]1 [Compound 11, N-(5-cyclopropyl-1H-pyrazol-3-yl)-2-((4-fluoro-2-methyl-1H-indol-5-yl)oxy)-6-(piperazin-1-yl)pyrimidin-4-amine]",,1.61 nM,,,3.16 nM,strong anti-tumor effect,strong anti-tumor effect,minimal body weight lost,inhibition at 0.1 µM (GSK3α(h)): 20%; inhibition at 0.1 µM (Abl(T315I)(h)): 102%; inhibition at 0.1 µM (Flt4(h)): 100%; inhibition at 0.1 µM (DRAK1(h)): 42%; inhibition at 0.1 µM (JNK2α2(h)): -16%; inhibition at 0.1 µM (Abl(Y253F)(h)): 100%; inhibition at 0.1 µM (CK1γ1(h)): -10%; inhibition at 0.1 µM [1]: -1%; inhibition at 0.1 µM (CHK2(R145W)(h)): 6%; body weight change [2]: no body weight lost; inhibition at 0.1 µM (Fgr(h)): 100%
C/C=C/c1cc(Nc2cc(N3CCN(C)CC3)nc(Oc3ccc4[nH]c(C)cc4c3F)n2)n[nH]1 [Compound 53],3.5 nM,0.24 nM,0.78 nM,0.06 nM,11 nM,,,,IC50 (Abl(T315I)(h); Abl(T315I)): 0.5 nM; IC50 (Flt4(h); VEGFR3): 2 nM; IC50 (Abl(Y253F)(h); Abl (Y253F)): 0.5 nM
C/C=C/c1cc(Nc2cc(N3CCNCC3)nc(Oc3ccc4[nH]c(C)cc4c3F)n2)n[nH]1 [Compound 68],1.9 nM,,0.88 nM,,,,strong anti-tumor effect,minimal body weight lost,
Cc1cc2c(F)c(Oc3nc(Nc4cc(C5CC5)[nH]n4)cc(N4CCNCC4)n3)cc(F)c2[nH]1 [Compound 82],,0.75 nM,,,2.65 nM,,strong anti-tumor effect,minimal body weight lost,
C/C=C/c1cc(Nc2cc(N3CCN(CCO)CC3)nc(Oc3cc(F)c4[nH]c(C)cc4c3F)n2)n[nH]1 [Compound 88],3.4 nM,0.71 nM,0.31 nM,0.06 nM,3.71 nM,,,,
C/C=C/c1cc(Nc2cc(N3CCN(C)CC3)nc(Oc3cc(F)c4[nH]c(C)cc4c3F)n2)n[nH]1 [NTW-3456],,,,,,significant anti-tumor activity,significant anti-tumor activity,,kinase inhibition of T315I abl mutant (Abl(T315I)(h)): inhibits
